What was measured:
[1] = test system: endogeneous binding proteins; assay: ACMIA assay for tacrolimus on spiked whole blood samples with and without SIRO displacing agent (free vs bound tacrolimus); assay type: in vitro ADME; conditions: for Protein-Bound: +SIRO minus −SIRO; for +SIRO ng/mL (free plus bound tacrolimus): with SIRO displacer
Experimental: Testing is carried out using the DIMENSION® RxL analyzer, available from Siemens Healthcare Diagnostics Inc., Newark Del. The instrument is employed using ACMIA immunoassay technology. The ACMIA assay method is described in U.S. Pat. Nos. 7,186,518, 5,147,529, 5,128,103, 5,158,871, 4,661,408, 5,151,348, 5,302,532, 5,422,284, 5,447,870, and 5,434,051, the disclosures of which are incorporated herein in their entirety. In the embodiment of the ACMIA method used herein and discussed in more detail below, competition between tacrolimus analog on chrome particles and tacrolimus in patient samples for antibody for tacrolimus conjugated to an enzyme (the “conjugate”) is utilized to determine the amount of tacrolimus in patient samples. Conjugate that binds to the tacrolimus analog on chrome particles is removed by magnetic separation. The enzymatic activity from conjugate remaining in the supernatant is measured and is directly proportional to the amount of tacrolimus in the patient sample. In the ACMIA assay format employed, the enzymatic activity observed when testing a sample containing no tacrolimus is indicative of the amount of enzymatic activity that is not bound to active antibody (i.e., cannot bind tacrolimus on chrome particles). The enzymatic activity observed when no chrome particle is present is indicative of the total amount of enzymatic activity in the conjugate. These values can be used to estimate the percent of enzymatic activity bound to active antibody.
Tacrolimus-free whole blood pools are screened by running the above mentioned ACMIA assay to identify whole blood pools that are substantially free from endogenous interfering substances. The screening is carried out by examining the consistency of tacrolimus recoveries of the pools to the individual tacrolimus-free whole blood samples. If the recoveries of the majority of the tacrolimus-free whole blood samples are within the low end sensitivity of the assay when the pool is used as the tacrolimus-free calibrator, the pool is accepted as a matrix free from endogenous interfering substances. The pool is then used to make the tacrolimus calibrators (or standards) by spiking different amounts of pure tacrolimus into the pool. The calibrators (which are substantially free from endogenous interfering substances) are then employed to generated the relationship of [Z]=a[Y]+b during the method calibration, which is achieved by testing the calibrators in the presence and absence of a displacing agent (sirolimus). Both [Z] and [Y] are generated from the calibration. The [Z] values of the calibrators are generated by running the calibrators in the absence of the displacing agent (representing the free drug) and the [Y] values of the calibrators are generated by subtracting the [Z] value from the total drug measured in the presence of the displacing agent (representing the bound drug). Calibrators made from a whole blood pool that is substantially free from endogeneous interfering substances are selected for use in the experiments below.
The whole blood pool substantially free from endogeneous interfering substances identified above is used. Aliquots (100 mL) of the whole blood pool are spiked with various amounts of tacrolimus so that the resulting concentration of tacrolimus in the whole blood samples is 0, 2.8, 6.0, 11.9 and 31.3 ng/mL (samples I-V).
A set of samples I-V is treated as follows: To each sample is added a sirolimus (SIRO) displacing agent for displacing tacrolimus in the sample from endogeneous binding proteins. The formulation for the SIRO displacement solution is set forth in more detail in Table 1.
The samples are incubated at 37° C. for a period of 140 minutes in the presence of displacing agent to displace tacrolimus from endogeneous binding substances. […]

[2] = test system: endogeneous binding proteins; assay: as above; assay type: in vitro ADME; conditions: without SIRO
[3] = ACMIA assay for tacrolimus on unknown samples known to contain endogeneous interfering substances
[4] = as above; conditions: for Estimated True: [Y]+[Z]; for Free drug: [Z]=0.218[Y]+0.0981
Experimental: Testing is carried out using the DIMENSION® RxL analyzer, available from Siemens Healthcare Diagnostics Inc., Newark Del. The instrument is employed using ACMIA immunoassay technology. The ACMIA assay method is described in U.S. Pat. Nos. 7,186,518, 5,147,529, 5,128,103, 5,158,871, 4,661,408, 5,151,348, 5,302,532, 5,422,284, 5,447,870, and 5,434,051, the disclosures of which are incorporated herein in their entirety. In the embodiment of the ACMIA method used herein and discussed in more detail below, competition between tacrolimus analog on chrome particles and tacrolimus in patient samples for antibody for tacrolimus conjugated to an enzyme (the “conjugate”) is utilized to determine the amount of tacrolimus in patient samples. Conjugate that binds to the tacrolimus analog on chrome particles is removed by magnetic separation. The enzymatic activity from conjugate remaining in the supernatant is measured and is directly proportional to the amount of tacrolimus in the patient sample. In the ACMIA assay format employed, the enzymatic activity observed when testing a sample containing no tacrolimus is indicative of the amount of enzymatic activity that is not bound to active antibody (i.e., cannot bind tacrolimus on chrome particles). The enzymatic activity observed when no chrome particle is present is indicative of the total amount of enzymatic activity in the conjugate. These values can be used to estimate the percent of enzymatic activity bound to active antibody. The ACMIA assay for tacrolimus is as follows: 15 μL of a whole blood samples I-V from above (substantially free from endogeneous interfering substances and spiked with tacrolimus) is mixed with the SIRO displacement solution (Table 1) in a vessel on the DIMENSION® RxL analyzer. The whole blood is sampled from a standard cup by first mixing the blood with the ultrasonic sample probe. The mixing of whole blood sample with the SIRO displacement solution ensures the displacement of the bound tacrolimus molecules from their binding sites when the SIRO molecules are present. As a result, the signal generated from this assay is related to the amount of free tacrolimus analyte plus the amount of displaced tacrolimus analyte (bound analyte) in the sample. Anti-tacrolimus antibody-β-galactosidase conjugate (50 μL) is added next to each of the reaction vessels and the mixture is held for a period of time (10 to 15 minutes) and at a temperature of 43° C. to allow tacrolimus, if present, to react with the antibody reagent. Chrome particles with immobilized tacrolimus-CM0-DA10-Dexal are added (50 μL) to each of the reaction vessels and are allowed to bind un-bound conjugate. […] The tacrolimus-bound conjugate is detected by transferring the supernatant from each of the reaction vessels to a photometric cuvette and measuring the enzymatic rate of the conjugate in the presence of chlorophenol red-β-D-galactopyranoside (CPRG). The rate for each reaction vessel is measured bichromatically at 577 and 700 nm. The above ACMIA assay is then carried out on unknown samples known to contain endogeneous interfering substances. Samples are obtained from various hospitals and are identified as set forth in first column of Table 3 below. The concentration of bound tacrolimus [Y] is determined as described above. The equation [Z]=0.218[Y]+0.0981 with the values for “a” and “b” determined as discussed above for this ACMIA assay is used to determine a concentration of free tacrolimus [Z] in the samples. The estimated true total concentration of tacrolimus [X] in each sample is determined by adding [Y]+[Z].

- Protein-Bound ([1]; BV 2.8 ng/mL): 2.1 ng/mL
- +SIRO ng/mL (free plus bound tacrolimus) ([1]; BV 2.8 ng/mL): 2.8 ng/mL
- Protein-Bound ([1]; BV 6.0 ng/mL): 4.9 ng/mL
- +SIRO ng/mL (free plus bound tacrolimus) ([1]; BV 6.0 ng/mL): 6.0 ng/mL
- Protein-Bound ([1]; BV 11.9 ng/mL): 9.7 ng/mL
- +SIRO ng/mL (free plus bound tacrolimus) ([1]; BV 11.9 ng/mL): 11.9 ng/mL
- Protein-Bound ([1]; BV 31.3 ng/mL): 25.6 ng/mL
- +SIRO ng/mL (free plus bound tacrolimus) ([1]; BV 31.3 ng/mL): 31.3 ng/mL
- −SIRO ng/mL (free tacrolimus) ([2]; BV 2.8 ng/mL): 0.7 ng/mL
- −SIRO ng/mL (free tacrolimus) ([2]; BV 6.0 ng/mL): 1.2 ng/mL
- −SIRO ng/mL (free tacrolimus) ([2]; BV 11.9 ng/mL): 2.2 ng/mL
- −SIRO ng/mL (free tacrolimus) ([2]; BV 31.3 ng/mL): 5.7 ng/mL
- ng/mL − displacer ([3]; sample 864408): 25.4 ng/mL
- ng/mL − displacer ([3]; sample Dussel): 12.2 ng/mL
- ng/mL − displacer ([3]; sample FP15): 3.8 ng/mL
- Bound drug ([4]; sample 09-238-057): 0.0 ng/mL
- ng/mL + displacer ([4]; sample 09-238-057): 32.7 ng/mL
- ng/mL − displacer ([4]; sample 09-238-057): 36.1 ng/mL
- Estimated True ([4]; sample 09-238-057): 0.0 ng/mL
- Free drug ([4]; sample 09-238-057): 0.0 ng/mL
- Bound drug ([4]; sample 109): 0.0 ng/mL
- ng/mL + displacer ([4]; sample 109): 16.4 ng/mL
- ng/mL − displacer ([4]; sample 109): 21.3 ng/mL
- Estimated True ([4]; sample 109): 0.0 ng/mL
- Free drug ([4]; sample 109): 0.0 ng/mL
- Bound drug ([4]; sample 864408): 2.3 ng/mL
- ng/mL + displacer ([4]; sample 864408): 27.7 ng/mL
- Estimated True ([4]; sample 864408): 2.9 ng/mL
- Free drug ([4]; sample 864408): 0.6 ng/mL
- Bound drug ([4]; sample Dussel): 2.3 ng/mL
- ng/mL + displacer ([4]; sample Dussel): 14.4 ng/mL
- Estimated True ([4]; sample Dussel): 2.9 ng/mL
- Free drug ([4]; sample Dussel): 0.6 ng/mL
- Bound drug ([4]; sample FP15): 7.1 ng/mL
- ng/mL + displacer ([4]; sample FP15): 10.9 ng/mL
- Estimated True ([4]; sample FP15): 8.7 ng/mL
- Free drug ([4]; sample FP15): 1.6 ng/mL
SMILES: C=CC[C@@H]1/C=C(\C)C[C@H](C)C[C@H](OC)[C@H]2O[C@@](O)(C(=O)C(=O)N3CCCC[C@H]3C(=O)O[C@H](/C(C)=C/[C@@H]3CC[C@@H](O)[C@H](OC)C3)[C@H](C)[C@@H](O)CC1=O)[C@H](C)C[C@@H]2OC [tacrolimus]

Reference: patent US9658218B2, “Determination of total analyte concentration” (Siemens Healthcare Diagnostics Inc., priority 2012, dated 2017)
